# US4774232A, “Bile-substituting method of treatment for the promotion of fat digestion” (Chinoin Gyogyszer Es Vegyeszeti Termak Ek Gyara Rt, priority 1985, dated 1988)
# What was measured:
# [1] = system: intact rats; assay: Absorption of 3H-stearic acid with oral DIMEB in intact rats; format: in vivo, CFY female rats; details: for Radioactivity in 10 ml of blood: 11.3 mg 3H-stearic acid + 50 mg DIMEB oral
# Procedure: The effect of DIMEB on the absorption of ^3 H-stearic acid was studied in intact rats. The aim of this experiment was to make clear if the absorption of stearic acid was stimulated by DIMEB under the conditions of physiological bile functions. The animals were starved overnight before and during the experiment but received water ad libitum. One group of the experimental animals (CFY female rats with an average body weight of 180 g; 3 animals ) received 13 mg of ^3 H-stearic acid (specific radioactivity: 147.22 kBq/mg), whereas the other group (3 animals) was given 11.3 mg of ^3 H-stearic acid and 50 mg of DIMEB in 2 ml of distilled water. The substances were suspended in the distilled water ultrasonically. Thereafter, the radioactivity level of the blood was measured at various time intervals by using the liquid scintillation method (Table X).
# [2] = system: lipase (pancreas suspension); assay: In vitro enzymatic hydrolysis of triglycerides: olive oil, pancreas suspension; format: biochemical; details: for 0.005 N NaOH consumed: series Bile I, olive oil, pancreas suspension, 37° C.
# Procedure: In an aqueous medium, lipase is capable to split triglycerides only at an extraordinarily low rate. Therefore, an organic solvent should be added to the system, by which the solubility of the triglycerides is increased, but the enzyme activity is diminished. Alternatively, some type of detergent, suitably bile has to be used. The effect of bile was compared to that of DIMEB at 37° C. in such a way that, the quantity of the formed free fatty acids in the samples taken from the reaction mixture at various intervals was titrated by using sodium hydroxide solution. The composition of the reaction mixture was as follows:
# a total volume of 1.5 ml contained 4 μmoles of the substrate (triolein or olive oil), 10 mg of bovine serum albumin, 75 μmoles of sodium chloride, 50 μmoles of a phosphate buffer solution (pH 7.4) and 0.25 ml of an enzyme solution. A lipase of the Serva Company (in an 1 mg/10 ml solution) or a pancreas powder (0.5 g was suspended in 10 ml of distilled water and the slightly opalescent solution obtained after filtration was used) were employed as enzyme preparations.
# The composition of the solutions to be tested were as follows:
# 0.5 ml of buffer+10 mg of serum albumin+3.54 mg of substrate+0.25 ml of enzyme solution plus
# (a) 0.25 ml of diluted bile+0.50 ml of distilled water; or
# (b) 50 mg of dimethyl-β-cyclodextrin dissolved in 0.75 ml of water; or […]
# [3] = system: bile duct-ligated rats; assay: Substitution of the bile in rats: plasma total lipid after single fat dose; format: in vivo, rats (Etymis rattus var. albino)
# Procedure: In the first series of experiments, the total lipid concentration of the plasma was investigated in bile-deficient rats.
# The experimental rats (Etymis rattus var. albino) were kept on a standard food for 10 days before the experiment. The composition of this animal food was as follows:
# The bile duct was ligated under ether anaesthesia.
# In the 48th hour following the operation, 1.5 ml of swine fat or 1.5 ml of swine fat together with 75 mg of DIMEB were orally administered. After 4.5 hours, the animals were decapitated and the total lipid concentration of the plasma was determined according to the method of de La Huerga et al. [Amer. J. Clin. Pathol. 23, 1163 (1953)]
compound,measurement,setting,value
"COC[C@H]1O[C@@H]2O[C@H]3[C@H](O)[C@@H](OC)[C@@H](O[C@H]4[C@H](O)[C@@H](OC)[C@@H](O[C@H]5[C@H](O)[C@@H](OC)[C@@H](O[C@H]6[C@H](O)[C@@H](OC)[C@@H](O[C@H]7[C@H](O)[C@@H](OC)[C@@H](O[C@H]8[C@H](O)[C@@H](OC)[C@@H](O[C@H]1[C@H](O)[C@H]2OC)O[C@@H]8COC)O[C@@H]7COC)O[C@@H]6COC)O[C@@H]5COC)O[C@@H]4COC)O[C@@H]3COC [DIMEB, heptakis(2,6-di-O-methyl)-β-cyclodextrin]",Radioactivity in 10 ml of blood,"[1]; 1 h, animal 4",1.71 percentage
same,Radioactivity in 10 ml of blood,"[1]; 1 h, animal 5",1.74 percentage
same,Radioactivity in 10 ml of blood,"[1]; 1 h, animal 6",2.23 percentage
same,Radioactivity in 10 ml of blood,"[1]; 1 h, mean",1.89 percentage
same,Radioactivity in 10 ml of blood,"[1]; 2 h, animal 4",1.84 percentage
same,Radioactivity in 10 ml of blood,"[1]; 2 h, animal 5",1.88 percentage
same,Radioactivity in 10 ml of blood,"[1]; 2 h, animal 6",2.00 percentage
same,Radioactivity in 10 ml of blood,"[1]; 2 h, mean",1.91 percentage
same,Radioactivity in 10 ml of blood,"[1]; 3 h, animal 4",2.03 percentage
same,Radioactivity in 10 ml of blood,"[1]; 3 h, animal 5",1.75 percentage
same,Radioactivity in 10 ml of blood,"[1]; 3 h, animal 6",2.13 percentage
same,Radioactivity in 10 ml of blood,"[1]; 3 h, mean",1.97 percentage
same,Radioactivity in 10 ml of blood,"[1]; 4 h, animal 4",2.12 percentage
same,Radioactivity in 10 ml of blood,"[1]; 4 h, animal 5",1.71 percentage
same,Radioactivity in 10 ml of blood,"[1]; 4 h, animal 6",1.99 percentage
same,Radioactivity in 10 ml of blood,"[1]; 4 h, mean",1.94 percentage
same,Radioactivity in 10 ml of blood,"[1]; 5 h, animal 4",2.10 percentage
same,Radioactivity in 10 ml of blood,"[1]; 5 h, animal 5",1.76 percentage
same,Radioactivity in 10 ml of blood,"[1]; 5 h, animal 6",2.00 percentage
same,Radioactivity in 10 ml of blood,"[1]; 5 h, mean",1.95 percentage
same,Radioactivity in 10 ml of blood,"[1]; 6 h, animal 4",2.16 percentage
same,Radioactivity in 10 ml of blood,"[1]; 6 h, animal 5",1.75 percentage
same,Radioactivity in 10 ml of blood,"[1]; 6 h, animal 6",2.04 percentage
same,Radioactivity in 10 ml of blood,"[1]; 6 h, mean",1.98 percentage
same,Radioactivity in 10 ml of blood,"[1]; 8 h, animal 4",2.16 percentage
same,Radioactivity in 10 ml of blood,"[1]; 8 h, animal 5",1.84 percentage
same,Radioactivity in 10 ml of blood,"[1]; 8 h, animal 6",1.94 percentage
same,Radioactivity in 10 ml of blood,"[1]; 8 h, mean",1.98 percentage
same,Radioactivity in 10 ml of blood,"[1]; 10 h, animal 4",2.20 percentage
same,Radioactivity in 10 ml of blood,"[1]; 10 h, animal 5",2.02 percentage
same,Radioactivity in 10 ml of blood,"[1]; 10 h, animal 6",2.21 percentage
same,Radioactivity in 10 ml of blood,"[1]; 10 h, mean",2.14 percentage
same,Radioactivity in 10 ml of blood,"[1]; 24 h, animal 4",2.84 percentage
same,Radioactivity in 10 ml of blood,"[1]; 24 h, animal 5",2.94 percentage
same,Radioactivity in 10 ml of blood,"[1]; 24 h, animal 6",2.39 percentage
same,Radioactivity in 10 ml of blood,"[1]; 24 h, mean",2.72 percentage
same,"Radioactivity of the blood, percent of the administered activity","[1]; 24th hour, both groups",2.7%
same,Absorption-enhancing effect on 3H-stearic acid,"[1]; physiological bile functions, 50 mg DIMEB",did not show any absorption-enhancing effect
same,Effect on the action of lipase,"[2]; in vitro, Table 1 overall",accelerate the action of lipase to a significant extent
same,0.005 N NaOH consumed,[2]; reaction time 0.5 hour,1.74 mL
same,0.005 N NaOH consumed,[2]; reaction time 1 hour,2.00 mL
same,0.005 N NaOH consumed,[2]; reaction time 2 hour,2.20 mL
same,0.005 N NaOH consumed,[2]; reaction time 19 hour,4.77 mL
same,Increase of total lipid fraction in the blood plasma,"[3]; bile duct-ligated rats, 1.5 ml fat + 75 mg DIMEB",5 fold
same,Total lipid concentration of the blood plasma,"[3]; rats after bile duct-ligation, 1.5 ml fat + 75 mg DIMEB oral, after 4.5 hours",1266.6 ± 86.5 mg/100 ml
